From ChEMBL document CHEMBL3045618, “Effect of seven new orchard pesticides on Galendromus occidentalis in laboratory studies” (2009)

Key:
Galendromus occidentalis [1] = assay: Toxicity against Metaseiulus occidentalis adults in bean leaf disk infested with two-spotted spider mites assessed as corrected mortality at 0.1167 g AI/L treated using worst-case laboratory exposure procedure measured after 72 hr; type: functional
Galendromus occidentalis [2] = assay: Toxicity against Metaseiulus occidentalis adults in bean leaf disk infested with two-spotted spider mites assessed as repellency at 0.1167 g AI/L treated using worst-case laboratory exposure procedure measured after 48 hr (reference value: 13.6%); type: functional
Galendromus occidentalis [3] = assay: Toxicity against Metaseiulus occidentalis adults in bean leaf disk infested with two-spotted spider mites assessed as repellency at 0.1167 g AI/L treated using worst-case laboratory exposure procedure measured after 72 hr (reference value: 16.1%); type: functional
Galendromus occidentalis [4] = assay: Toxicity against Metaseiulus occidentalis adults in bean leaf disk infested with two-spotted spider mites assessed as average number of eggs laid (fecundity) at 0.1167 g AI/L treated using worst-case laboratory exposure procedure measured after 48 hr (reference value: 2.30/day); type: functional
Galendromus occidentalis [5] = assay: Toxicity against Metaseiulus occidentalis adults in bean leaf disk infested with two-spotted spider mites assessed as corrected mortality at 2x0.1167 g AI/L treated using worst-case laboratory exposure procedure measured after 72 hr; type: functional
Galendromus occidentalis [6] = assay: Toxicity against Metaseiulus occidentalis adults in bean leaf disk infested with two-spotted spider mites assessed as average number of eggs laid (fecundity)at 0.1167 g AI/L treated using worst-case laboratory exposure procedure measured after 72 hr (reference value: 2.23/day); type: functional
Galendromus occidentalis [7] = assay: Toxicity against Metaseiulus occidentalis adults in bean leaf disk infested with two-spotted spider mites assessed as average number of eggs laid (fecundity) at 0.1167 g AI/L treated using worst-case laboratory exposure procedure measured after 24 hr (reference value: 2.11/day); type: functional
Galendromus occidentalis [8] = assay: Toxicity against Metaseiulus occidentalis adults in bean leaf disk infested with two-spotted spider mites assessed as corrected mortality at 0.1167/46 g AI/L treated using worst-case laboratory exposure procedure measured after 72 hr; type: functional
Galendromus occidentalis [9] = assay: Ovicidal activity against Metaseiulus occidentalis eggs in bean leaf disk infested with two-spotted spider mites assessed as corrected cumulative mortality at 700 g/kg WP formulation treated using worst-case laboratory exposure procedure measured after 144 hr (reference value: 0.7%); type: functional
Galendromus occidentalis [10] = assay: Toxicity against Metaseiulus occidentalis adults in bean leaf disk infested with two-spotted spider mites assessed as repellency at 0.1167 g AI/L treated using worst-case laboratory exposure procedure measured after 24 hr (reference value: 3.6%); type: functional
Galendromus occidentalis [11] = assay: Toxicity against Metaseiulus occidentalis adults in bean leaf disk infested with two-spotted spider mites assessed as corrected mortality at 0.1167/8 g AI/L treated using worst-case laboratory exposure procedure measured after 72 hr; type: functional
Galendromus occidentalis [12] = assay: Toxicity against Metaseiulus occidentalis adults in bean leaf disk infested with two-spotted spider mites assessed as corrected mortality at 4x0.1167 g AI/L treated using worst-case laboratory exposure procedure measured after 72 hr; type: functional
Galendromus occidentalis [13] = assay: Toxicity against Metaseiulus occidentalis adults in bean leaf disk infested with two-spotted spider mites assessed as corrected mortality at 0.1167/128 g AI/L treated using worst-case laboratory exposure procedure measured after 72 hr; type: functional
Galendromus occidentalis [14] = assay: Toxicity against Metaseiulus occidentalis adults in bean leaf disk infested with two-spotted spider mites assessed as mortality treated using worst-case laboratory exposure procedure measured after 72 hr; type: functional
Galendromus occidentalis [15] = assay: Toxicity against Metaseiulus occidentalis adults in bean leaf disk infested with two-spotted spider mites assessed as corrected mortality at 0.1600/32 g AI/L treated using worst-case laboratory exposure procedure measured after 72 hr; type: functional
Galendromus occidentalis [16] = assay: Toxicity against Metaseiulus occidentalis adults in bean leaf disk infested with two-spotted spider mites assessed as corrected mortality at 0.1600 g AI/L treated using worst-case laboratory exposure procedure measured after 72 hr; type: functional
Galendromus occidentalis [17] = assay: Toxicity against Metaseiulus occidentalis adults in bean leaf disk infested with two-spotted spider mites assessed as average number of eggs laid (fecundity) at 0.1600 g AI/L treated using worst-case laboratory exposure procedure measured after 48 hr (reference value: 2.30/day); type: functional
Galendromus occidentalis [18] = assay: Toxicity against Metaseiulus occidentalis adults in bean leaf disk infested with two-spotted spider mites assessed as corrected mortality at 0.1600/8 g AI/L treated using worst-case laboratory exposure procedure measured after 72 hr; type: functional
Galendromus occidentalis [19] = assay: Toxicity against Metaseiulus occidentalis adults in bean leaf disk infested with two-spotted spider mites assessed as repellency at 0.1600 g AI/L treated using worst-case laboratory exposure procedure measured after 24 hr (reference value: 3.6%); type: functional
Galendromus occidentalis [20] = assay: Toxicity against Metaseiulus occidentalis in hop fields assessed as mortality; type: functional
Galendromus occidentalis [21] = assay: Toxicity against Metaseiulus occidentalis adults in bean leaf disk infested with two-spotted spider mites assessed as repellency at 0.1600 g AI/L treated using worst-case laboratory exposure procedure measured after 48 hr (reference value: 13.6%); type: functional
Amblyseius andersoni = assay: Toxicity against Amblyseius andersoni in hop fields assessed as mortality; type: functional
Galendromus occidentalis [22] = assay: Toxicity against Metaseiulus occidentalis adults in bean leaf disk infested with two-spotted spider mites assessed as repellency at 0.1600 g AI/L treated using worst-case laboratory exposure procedure measured after 72 hr (reference value: 16.1%); type: functional
Neoseiulus fallacis = assay: Toxicity against Neoseiulus fallacis in hop fields assessed as mortality; type: functional, Garman
Galendromus occidentalis [23] = assay: Toxicity against Metaseiulus occidentalis adults in bean leaf disk infested with two-spotted spider mites assessed as average number of eggs laid (fecundity) at 0.1600 g AI/L treated using worst-case laboratory exposure procedure measured after 24 hr (reference value: 2.11/day); type: functional
Galendromus occidentalis [24] = assay: Toxicity against Metaseiulus occidentalis adults in bean leaf disk infested with two-spotted spider mites assessed as corrected mortality at 0.1600/2 g AI/L treated using worst-case laboratory exposure procedure measured after 72 hr; type: functional
Galendromus occidentalis [25] = assay: Ovicidal activity against Metaseiulus occidentalis eggs in bean leaf disk infested with two-spotted spider mites assessed as corrected cumulative mortality at 240 g/L SC formulation treated using worst-case laboratory exposure procedure measured after 144 hr (reference value: 0.7%); type: functional
Galendromus occidentalis [26] = assay: Toxicity against Metaseiulus occidentalis adults in bean leaf disk infested with two-spotted spider mites assessed as corrected mortality at 0.1600/16 g AI/L treated using worst-case laboratory exposure procedure measured after 72 hr; type: functional
Galendromus occidentalis [27] = assay: Toxicity against Metaseiulus occidentalis adults in bean leaf disk infested with two-spotted spider mites assessed as average number of eggs laid (fecundity) at 0.1600 g AI/L treated using worst-case laboratory exposure procedure measured after 72 hr (reference value: 2.23/day); type: functional
Galendromus occidentalis [28] = assay: Toxicity against Metaseiulus occidentalis adults in bean leaf disk infested with two-spotted spider mites assessed as average number of eggs laid (fecundity) at 0.3767 g AI/L treated using worst-case laboratory exposure procedure measured after 48 hr (reference value: 2.30/day); type: functional
Galendromus occidentalis [29] = assay: Toxicity against Metaseiulus occidentalis adults in bean leaf disk infested with two-spotted spider mites assessed as repellency at 0.3767 g AI/L treated using worst-case laboratory exposure procedure measured after 24 hr (reference value: 3.6%); type: functional
Galendromus occidentalis [30] = assay: Toxicity against Metaseiulus occidentalis adults in bean leaf disk infested with two-spotted spider mites assessed as repellency at 0.3767 g AI/L treated using worst-case laboratory exposure procedure measured after 48 hr (reference value: 13.6%); type: functional
Galendromus occidentalis [31] = assay: Toxicity against Metaseiulus occidentalis adults in bean leaf disk infested with two-spotted spider mites assessed as average number of eggs laid (fecundity) at 0.3767 g AI/L treated using worst-case laboratory exposure procedure measured after 72 hr (reference value: 2.23/day); type: functional
Galendromus occidentalis [32] = assay: Toxicity against Metaseiulus occidentalis adults in bean leaf disk infested with two-spotted spider mites assessed as average number of eggs laid (fecundity) at 0.3767 g AI/L treated using worst-case laboratory exposure procedure measured after 24 hr (reference value: 2.11/day); type: functional
Galendromus occidentalis [33] = assay: Toxicity against Metaseiulus occidentalis adults in bean leaf disk infested with two-spotted spider mites assessed as repellency at 0.3767 g AI/L treated using worst-case laboratory exposure procedure measured after 72 hr (reference value: 16.1%); type: functional
Galendromus occidentalis [34] = assay: Toxicity against Metaseiulus occidentalis adults in bean leaf disk infested with two-spotted spider mites assessed as corrected mortality at 0.3767 g AI/L treated using worst-case laboratory exposure procedure measured after 72 hr; type: functional

**Q.** For `C/C(=N\C#N)N(C)Cc1ccc(Cl)nc1` [ACETAMIPRID], which mortality (Galendromus occidentalis [1]) is on record?
**A.** 63.7%

**Q.** What about the Repellency (Galendromus occidentalis [2]) of the same molecule?
**A.** 41%

**Q.** What about the Repellency (Galendromus occidentalis [3]) of the same molecule?
**A.** 50%

**Q.** What about the Activity (Galendromus occidentalis [4]) of the same molecule?
**A.** 0.13 day⁻¹

**Q.** And the mortality (Galendromus occidentalis [5])?
**A.** 64.2%

**Q.** And the Activity (Galendromus occidentalis [6])?
**A.** 0 day⁻¹

**Q.** What about the Activity (Galendromus occidentalis [7]) of the same molecule?
**A.** 1.3 day⁻¹

**Q.** And the mortality (Galendromus occidentalis [8])?
**A.** 42.4%

**Q.** And the mortality (Galendromus occidentalis [9])?
**A.** 2%

**Q.** And the Repellency (Galendromus occidentalis [10])?
**A.** 16%

**Q.** And the mortality (Galendromus occidentalis [11])?
**A.** 56.9%

**Q.** What about the mortality (Galendromus occidentalis [12]) of the same molecule?
**A.** 83.1%

**Q.** What about the mortality (Galendromus occidentalis [13]) of the same molecule?
**A.** 2.4%

**Q.** And the LC50 (Galendromus occidentalis [14])?
**A.** 0.021 gAi/L

**Q.** With `O=[N+]([O-])/N=C1\NCCN1Cc1ccc(Cl)nc1` [IMIDACLOPRID] as the molecule, how does the mortality (Galendromus occidentalis [15]) read?
**A.** 16.8%

**Q.** And the mortality (Galendromus occidentalis [16])?
**A.** 97.4%

**Q.** And the Activity (Galendromus occidentalis [17])?
**A.** 1.54 day⁻¹

**Q.** And the mortality (Galendromus occidentalis [18])?
**A.** 59.4%

**Q.** And the Repellency (Galendromus occidentalis [19])?
**A.** 16%

**Q.** What about the mortality (Galendromus occidentalis [20]) of the same molecule?
**A.** 100%

**Q.** What about the Repellency (Galendromus occidentalis [21]) of the same molecule?
**A.** 51.9%

**Q.** What about the mortality (Amblyseius andersoni) of the same molecule?
**A.** 35.6%

**Q.** What about the Repellency (Galendromus occidentalis [22]) of the same molecule?
**A.** 53.8%

**Q.** What about the mortality (Neoseiulus fallacis) of the same molecule?
**A.** 100%

**Q.** What about the Activity (Galendromus occidentalis [23]) of the same molecule?
**A.** 2.05 day⁻¹

**Q.** And the LC50 (Galendromus occidentalis [14])?
**A.** 0.0156 gAi/L

**Q.** And the mortality (Galendromus occidentalis [24])?
**A.** 84.2%

**Q.** What about the mortality at 240000 µg/mL (stock) (Galendromus occidentalis [25]) of the same molecule?
**A.** 2.7%

**Q.** What about the mortality (Galendromus occidentalis [26]) of the same molecule?
**A.** 34.4%

**Q.** And the Activity (Galendromus occidentalis [27])?
**A.** 1.3 day⁻¹

**Q.** How did the Activity (Galendromus occidentalis [28]) turn out when `COc1cccc(C(=O)NN(C(=O)c2cc(C)cc(C)c2)C(C)(C)C)c1C` [METHOXYFENOZIDE] was run?
**A.** 2.15 day⁻¹

**Q.** And the Repellency (Galendromus occidentalis [29])?
**A.** 3.8%

**Q.** What about the Repellency (Galendromus occidentalis [30]) of the same molecule?
**A.** 5.8%

**Q.** And the Activity (Galendromus occidentalis [31])?
**A.** 2.38 day⁻¹

**Q.** What about the Activity (Galendromus occidentalis [32]) of the same molecule?
**A.** 1.93 day⁻¹

**Q.** And the Repellency (Galendromus occidentalis [33])?
**A.** 9%

**Q.** And the mortality at 240000 µg/mL (stock) (Galendromus occidentalis [25])?
**A.** 3.1%

**Q.** What about the mortality (Galendromus occidentalis [34]) of the same molecule?
**A.** 1.3%
